In article PMC4281712, “ATPase-dependent auto-phosphorylation of the open condensin hinge diminishes DNA binding” (Open Biology, 2014):

Tests used:
[1] = biological target: T1, Cut3–Cut14 (condensin SMC heterodimer; Cut3/SMC4–Cut14/SMC2) (Schizosaccharomyces pombe, UniProt P41003+P41004); assay: thiophosphorylation, PNBM alkylation, anti-thiophosphate ester western blot; format: biochemical; conditions: covalent thiophosphoryl transfer to Cut3; 10 mM ATPγS
T1 construct: full-length SMC heterodimer co-overproduced in S. pombe; C-terminal tags kept (Cut14-3HA-His6; Cut3 mutants 8Myc)
T1 sequence (P41004 1-1324): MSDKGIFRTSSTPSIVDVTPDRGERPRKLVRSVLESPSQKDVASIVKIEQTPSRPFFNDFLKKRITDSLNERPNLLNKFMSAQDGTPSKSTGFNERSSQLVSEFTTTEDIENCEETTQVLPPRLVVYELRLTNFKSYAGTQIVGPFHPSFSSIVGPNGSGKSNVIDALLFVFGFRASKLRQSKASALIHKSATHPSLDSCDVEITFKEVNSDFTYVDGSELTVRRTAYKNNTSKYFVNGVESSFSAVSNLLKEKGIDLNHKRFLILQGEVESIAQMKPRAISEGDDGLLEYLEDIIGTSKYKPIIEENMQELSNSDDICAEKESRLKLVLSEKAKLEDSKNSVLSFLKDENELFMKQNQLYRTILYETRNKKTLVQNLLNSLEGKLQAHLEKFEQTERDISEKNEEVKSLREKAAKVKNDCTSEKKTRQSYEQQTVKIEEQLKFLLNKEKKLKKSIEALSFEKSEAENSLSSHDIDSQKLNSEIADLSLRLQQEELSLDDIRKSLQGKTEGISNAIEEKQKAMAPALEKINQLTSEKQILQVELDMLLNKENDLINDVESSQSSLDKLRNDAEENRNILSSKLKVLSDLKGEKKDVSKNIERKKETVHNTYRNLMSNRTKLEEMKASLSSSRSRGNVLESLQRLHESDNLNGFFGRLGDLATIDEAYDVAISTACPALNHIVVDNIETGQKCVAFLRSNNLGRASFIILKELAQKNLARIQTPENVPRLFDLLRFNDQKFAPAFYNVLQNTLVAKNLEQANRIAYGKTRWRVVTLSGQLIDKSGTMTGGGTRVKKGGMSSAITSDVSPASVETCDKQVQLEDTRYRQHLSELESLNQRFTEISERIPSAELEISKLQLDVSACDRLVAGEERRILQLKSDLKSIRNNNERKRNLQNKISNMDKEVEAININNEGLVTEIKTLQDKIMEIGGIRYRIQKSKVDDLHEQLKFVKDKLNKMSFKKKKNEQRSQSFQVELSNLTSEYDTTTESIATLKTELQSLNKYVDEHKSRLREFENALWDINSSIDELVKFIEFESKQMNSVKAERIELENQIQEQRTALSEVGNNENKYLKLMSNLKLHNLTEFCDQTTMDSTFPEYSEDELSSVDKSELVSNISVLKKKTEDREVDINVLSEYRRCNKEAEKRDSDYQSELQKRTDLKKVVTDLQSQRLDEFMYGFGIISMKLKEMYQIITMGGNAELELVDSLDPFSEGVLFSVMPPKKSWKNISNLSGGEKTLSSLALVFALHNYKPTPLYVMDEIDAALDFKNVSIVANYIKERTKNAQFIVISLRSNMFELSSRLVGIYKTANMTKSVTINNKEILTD
T1 sequence (P41003 1-1172): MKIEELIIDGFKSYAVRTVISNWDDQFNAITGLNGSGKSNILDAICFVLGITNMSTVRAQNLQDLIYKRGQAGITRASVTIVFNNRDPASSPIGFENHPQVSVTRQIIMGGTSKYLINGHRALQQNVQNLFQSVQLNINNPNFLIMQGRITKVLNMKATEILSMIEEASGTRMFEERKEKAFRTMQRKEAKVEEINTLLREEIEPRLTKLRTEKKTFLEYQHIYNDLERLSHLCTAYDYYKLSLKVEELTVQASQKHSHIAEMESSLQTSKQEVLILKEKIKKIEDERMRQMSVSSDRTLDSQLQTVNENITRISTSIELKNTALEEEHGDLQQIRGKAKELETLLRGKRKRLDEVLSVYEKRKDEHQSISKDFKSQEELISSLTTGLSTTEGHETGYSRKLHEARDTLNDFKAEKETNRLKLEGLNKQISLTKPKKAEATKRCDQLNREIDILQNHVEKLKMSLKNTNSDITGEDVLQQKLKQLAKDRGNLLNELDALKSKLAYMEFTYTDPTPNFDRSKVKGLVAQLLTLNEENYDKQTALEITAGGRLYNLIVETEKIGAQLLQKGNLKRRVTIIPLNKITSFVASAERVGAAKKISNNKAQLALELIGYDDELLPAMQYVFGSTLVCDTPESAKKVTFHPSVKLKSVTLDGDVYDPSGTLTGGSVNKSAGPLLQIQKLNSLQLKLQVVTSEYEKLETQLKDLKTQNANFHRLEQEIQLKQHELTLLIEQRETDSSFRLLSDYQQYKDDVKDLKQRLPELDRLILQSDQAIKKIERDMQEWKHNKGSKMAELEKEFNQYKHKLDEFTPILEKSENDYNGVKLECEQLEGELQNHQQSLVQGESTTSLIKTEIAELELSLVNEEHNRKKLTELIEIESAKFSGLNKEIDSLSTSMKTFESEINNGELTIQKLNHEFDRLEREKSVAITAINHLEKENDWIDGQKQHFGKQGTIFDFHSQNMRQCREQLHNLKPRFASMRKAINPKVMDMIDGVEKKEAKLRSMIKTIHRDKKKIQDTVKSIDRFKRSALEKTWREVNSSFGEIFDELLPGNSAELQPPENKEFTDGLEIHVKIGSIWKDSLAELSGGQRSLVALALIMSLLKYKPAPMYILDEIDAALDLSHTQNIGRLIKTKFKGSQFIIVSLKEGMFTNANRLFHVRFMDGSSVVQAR

[2] = biological target: T1, Cut3–Cut14 (condensin SMC heterodimer; Cut3/SMC4–Cut14/SMC2); assay: inhibition of γ-32P labelling, autoradiography; format: biochemical; conditions: 1 mM nucleotide pre-incubated 5 min; ATP 8 nM hot, 50 nM cold; 30 min, 30 °C

Row | SMILES | thiophosphorylation, PNBM alkylation, anti-thiophosphate ester western blot [1] | inhibition of γ-32P labelling, autoradiography [2]
1 | Nc1ncnc2c1ncn2[C@@H]1O[C@H](COP(=O)(O)OP(=O)(O)OP(O)(O)=S)[C@@H](O)[C@H]1O [ATPγS] | Antibody against ATPγS detected Cut3 protein in the heterodimer after incubation in the presence of ATPγS | –
2 | Nc1ncnc2c1ncn2[C@@H]1O[C@H](COP(=O)(O)OP(=O)(O)NP(=O)(O)O)[C@@H](O)[C@H]1O [AMP-PNP] | – | Some labelling occurred in an excess of AMP-PNP
